Assay results: patent publication US20090082435A1, “Methods, Compositions, And Compounds For Modulation Of Monoacylglycerol Lipase, Pain, And Stress-Related Disorders” (The Regents of the University of California, priority 2005, published 2009)

Legend:
[1] = tested on: stress-induced analgesia in rats; test: non-opioid stress-induced analgesia: foot shock, then tail-flick test; assay type: in vivo, rat
[2] = biological target: T1, native rat brain MGL (Rattus norvegicus, UniProt Q8R431); test: MGL activity assay, rat brain cytosol, 2-monooleoylglycerol substrate; assay type: biochemical; conditions: for effect on rat brain MGL activity in vitro: FIG. 3b
T1 construct: from tissue; host or cells: Wistar rat brain, cytosol fraction
T1 sequence (Q8R431 1-303): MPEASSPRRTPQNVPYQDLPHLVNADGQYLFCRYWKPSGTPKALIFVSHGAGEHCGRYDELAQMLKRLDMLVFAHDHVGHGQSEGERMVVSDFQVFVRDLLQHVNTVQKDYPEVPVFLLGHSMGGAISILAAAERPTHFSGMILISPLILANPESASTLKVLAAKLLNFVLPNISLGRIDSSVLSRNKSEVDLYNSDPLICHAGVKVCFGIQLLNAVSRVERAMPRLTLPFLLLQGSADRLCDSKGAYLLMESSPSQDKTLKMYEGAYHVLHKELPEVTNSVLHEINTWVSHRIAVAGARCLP

[3] = tested on: tail-flick latencies in rats; test: tail-flick test without stressor: basal thresholds, agonist antinociception; assay type: in vivo, rat; conditions: for basal nociceptive threshold (tail-flick latencies) in absence of stressor: same doses and routes as in stress analgesia tests; for drug's own antinociceptive effects after repeated daily injections: prior to foot shock, WIN55,212-2 14 days, morphine 7 days
[4] = tested on: organotypic slice cultures of rat forebrain; test: endocannabinoid content by LC/MS in organotypic brain slice cultures; assay type: cell-based; conditions: URB602 100 μM; for anandamide levels: URB597 1 μM
Description: Brain slice cultures. Brain slices were cultured from Wistar rats. Pups were sacrificed on post-natal day 5 by decapitation following cryo-anaesthesia. Brains were removed and cut (0.4 mm-thick coronal slices) using a vibratome in a bath of ice-cold high-glucose Dulbecco's Modified Eagle's Medium (Gibco). Hemispheres were placed on Millicell culture inserts (Millipore) in 6-well plates with serum-based culture medium (1.5 ml) composed of basal Eagle medium with Earle's salts (100 ml), Earle's balanced salt solution (50 ml), heat-inactivated horse serum (50 ml), L-glutamine (0.2 mM, 1 ml) and 50% glucose (2 ml) (Gibco). Slices were maintained at 37° C. with 5% CO2 for 7 days before use.
(§1) Lipid extractions and LC/MS analyses. Ex vivo experiments. Rats were habituated to the guillotine for at least 7 days prior to the experiment and sacrificed them either before or various times (2, 7, 15 and 25 min) after a 3-min foot shock (n=10 per group). The brains were rapidly removed, dissected and stored frozen (−80° C.) until lipid extraction. In vitro experiments. […] In some experiments, slices were incubated with ionomycin (2 μM) in DMEM for additional 15 min. Reactions were stopped and washed with ice-cold 50% methanol (1 ml). Slices were collected in the same medium (0.2 ml) and homogenized. Brain tissue (≈50 mg) and slice homogenates were suspended in methanol (2 ml) containing [^2H]-containing internal standards (25 pmol). Lipids were extracted in methanol-chloroform-H2O (1:2:0.25). The organic phase was recovered, evaporated to dryness, reconstituted in chloroform/methanol (1:3, 80 μL) and subjected to LC/MS analysis as described (Giuffrida, A. et al., Anal. Biochem. 280:87-93 (2000)).

[5] = biological target: T2, rat brain FAAH (Rattus norvegicus, UniProt P97612); test: FAAH activity assay, rat brain membranes, anandamide substrate; assay type: biochemical; conditions: FIG. 3c
T2 construct: from tissue; host or cells: Wistar rat brain, membrane fraction
T2 sequence (P97612 1-579): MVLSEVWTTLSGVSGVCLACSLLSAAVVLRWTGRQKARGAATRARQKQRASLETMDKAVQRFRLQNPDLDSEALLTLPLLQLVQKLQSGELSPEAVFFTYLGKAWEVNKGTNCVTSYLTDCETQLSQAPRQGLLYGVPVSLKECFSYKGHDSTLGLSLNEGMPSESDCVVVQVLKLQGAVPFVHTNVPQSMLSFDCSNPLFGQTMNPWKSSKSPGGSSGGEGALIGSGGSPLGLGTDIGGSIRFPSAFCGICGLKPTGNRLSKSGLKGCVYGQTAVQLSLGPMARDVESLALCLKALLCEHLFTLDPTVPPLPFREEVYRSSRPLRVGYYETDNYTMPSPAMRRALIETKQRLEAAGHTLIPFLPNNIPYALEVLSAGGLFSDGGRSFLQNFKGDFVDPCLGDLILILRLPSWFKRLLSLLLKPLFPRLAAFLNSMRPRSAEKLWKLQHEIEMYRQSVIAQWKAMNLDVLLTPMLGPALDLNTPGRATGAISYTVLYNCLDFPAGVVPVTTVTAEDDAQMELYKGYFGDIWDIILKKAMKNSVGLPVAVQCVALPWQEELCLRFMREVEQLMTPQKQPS

[6] = biological target: T3, cyclooxygenase (Cox)-2 (Homo sapiens, UniProt P35354); test: cyclooxygenase assay, commercial kit with purified enzymes; assay type: biochemical
T3 construct: purchased Cayman Chemicals, Ann Arbor, Mich
T3 sequence (P35354 18-604): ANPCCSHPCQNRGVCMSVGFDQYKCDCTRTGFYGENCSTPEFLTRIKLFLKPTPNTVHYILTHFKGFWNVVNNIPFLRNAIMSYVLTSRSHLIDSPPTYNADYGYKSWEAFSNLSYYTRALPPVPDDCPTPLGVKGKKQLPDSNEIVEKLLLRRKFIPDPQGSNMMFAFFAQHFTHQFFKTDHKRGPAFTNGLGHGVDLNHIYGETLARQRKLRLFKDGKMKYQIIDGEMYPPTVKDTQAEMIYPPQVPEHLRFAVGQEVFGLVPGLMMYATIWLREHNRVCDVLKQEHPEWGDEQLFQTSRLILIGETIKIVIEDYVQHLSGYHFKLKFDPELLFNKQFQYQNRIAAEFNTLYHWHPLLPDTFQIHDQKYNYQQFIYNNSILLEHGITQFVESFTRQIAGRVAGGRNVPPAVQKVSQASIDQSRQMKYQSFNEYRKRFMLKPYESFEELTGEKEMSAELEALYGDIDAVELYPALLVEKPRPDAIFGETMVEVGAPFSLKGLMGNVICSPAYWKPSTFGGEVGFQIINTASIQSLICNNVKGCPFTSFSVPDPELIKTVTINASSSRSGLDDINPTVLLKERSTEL

[7] = tested on: PLD; test: phospholipase D activity assay; assay type: biochemical, S. chromofuscus
[8] = biological target: phospholipase C (PLC) (Bacillus cereus, UniProt P09598); test: phospholipase C activity assay; assay type: biochemical, B. cereus
Chain of phospholipase C (PLC) (P09598 39-283 limits assumed): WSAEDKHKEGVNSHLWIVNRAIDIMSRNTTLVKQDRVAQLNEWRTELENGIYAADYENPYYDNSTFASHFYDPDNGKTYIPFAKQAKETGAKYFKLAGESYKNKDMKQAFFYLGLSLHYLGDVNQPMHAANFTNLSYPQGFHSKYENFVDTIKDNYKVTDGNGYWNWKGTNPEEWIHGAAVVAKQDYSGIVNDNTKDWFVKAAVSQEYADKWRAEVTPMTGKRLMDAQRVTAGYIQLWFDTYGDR

[9] = tested on: diacylglycerol lipase (DGL); test: DGL activity assay, rat brain protein, [3H]dioleoylglycerol; assay type: biochemical
[10] = biological target: rat cerebellar membranes; test: [35S]-GTP-γ-S binding to rat cerebellar membranes; assay type: biochemical; conditions: data not shown; read-out: half-maximal effective concentration (EC50), [35S]-GTP-γ-S binding
[11] = tested on: 2-AG and anandamide levels in rat brain; test: ex vivo brain endocannabinoid levels by LC/MS after PAG microinjection and foot shock; assay type: in vivo
Description: as §1

[12] = URB602 0.1 nmol in PAG, 25 min after shock

Cc1c(C(=O)NN2CCCCC2)nn(-c2ccc(Cl)cc2Cl)c1-c1ccc(I)cc1 [AM251]
effect of antagonist on stress-induced analgesia, systemic ([1]; rat, in vivo, ip): almost abolished

NC(=O)c1cccc(-c2cccc(OC(=O)NC3CCCCC3)c2)c1 [URB597]
effect on stress-induced analgesia, URB597 in dorsolateral PAG ([1]; rat, in vivo): significant potentiation | effect on stress-induced analgesia, URB597 systemic ([1]; rat, in vivo, ip): significant potentiation | effect on rat brain MGL activity in vitro [2]: no effect | basal nociceptive threshold (tail-flick latencies) in absence of stressor [3]: did not modify | anandamide levels [4]: markedly elevated

O=C(Nc1cccc(-c2ccccc2)c1)OC1CCCCC1 [URB602, biphenyl-3-yl carbamic acid cyclohexyl ester]
effect on stress-induced analgesia, URB602 in dorsolateral PAG ([1]; 0.1 nmol microinjection): enhanced | effect on stress-induced analgesia, URB602 in ventrolateral PAG ([1]; 0.1 nmol microinjection): enhanced | effect on rat brain MGL activity in vitro [2]: inhibits | IC50 ([2]; broken cell preparations, read-out: half-maximal concentration (IC50) for inhibition of MGL): 28 ± 4 µM | mechanism of MGL inhibition ([2]; kinetic analyses): non-competitive | Vmax of MGL with URB602 ([2]; n=4, without URB602 1814±51): 541±20 nmol-min-mg^−1 protein | effect on rat brain FAAH activity [5]: does not affect | effect on Cox-2 activity [6]: did not affect | effect on PLD activity [7]: did not affect | effect on PLC activity [8]: did not affect | effect on DGL activity [9]: did not affect | EC50 [10]: > 100 µM | basal nociceptive threshold (tail-flick latencies) in absence of stressor [3]: without altering | 2-AG content in midbrain fragments vs untreated controls [11, 12]: significantly higher | anandamide levels in midbrain vs untreated controls [11, 12]: identical | 2-AG and anandamide concentrations in occipital cortex ([11]; URB602 injection into the PAG): not affected | basal 2-AG levels [4]: significantly increased | anandamide levels [4]: did not modify | 2-AG accumulation elicited by ionomycin ([4]; ionomycin 2 μM): enhanced

Cc1c(C(=O)c2cccc3ccccc23)c2cccc3c2n1[C@H](CN1CCOCC1)CO3 [WIN55, 212-2]
stress-induced analgesia in rats made tolerant to the agonist ([1]; rat, in vivo): marked reduction | drug's own antinociceptive effects after repeated daily injections [3]: decrease

CN1CC[C@]23c4c5ccc(O)c4O[C@H]2[C@@H](O)C=C[C@H]3[C@H]1C5 [morphine]
stress-induced analgesia in rats made tolerant to the agonist ([1]; rat, in vivo): normal degree | mean tail-flick latency after morphine, cannabinoid tolerant rats ([3]; morphine 2.5 mg-kg^−1 s.c., rats tolerant to WIN55,212-2, n=6-7): 6.09 ± 1.93 s | mean tail-flick latency after morphine, control rats ([3]; morphine 2.5 mg-kg^−1 s.c., vehicle-treated controls, n=6-7): 5.33 ± 0.21 s | drug's own antinociceptive effects after repeated daily injections [3]: decrease

O=C1CC[C@@]2(O)[C@H]3Cc4ccc(O)c5c4[C@@]2(CCN3CC2CC2)[C@H]1O5 [naltrexone]
effect of antagonist on stress-induced analgesia, systemic ([1]; rat, in vivo, ip): insensitive

Cc1c(C(=O)NN2CCCCC2)nn(-c2ccc(Cl)cc2Cl)c1-c1ccc(Cl)cc1 [rimonabant]
effect of low-dose rimonabant alone on stress analgesia ([1]; 0.2 nmol in PAG): insufficient to reverse | rimonabant effect on MAFP enhancement of stress analgesia ([1]; co-injection, rimonabant 0.2 nmol): blocked | effect of antagonist on stress-induced analgesia, systemic ([1]; i.p., naltrexone 14 mg-kg^−1, rimonabant, AM251, SR144528 5 mg-kg^−1): almost abolished | rimonabant effect on URB602 enhancement of stress analgesia ([1]; local co-administration in PAG, rimonabant 0.2 nmol): prevented | effect on stress-induced analgesia, ventrolateral PAG ([1]; rimonabant 2 nmol): inactive | effect on stress-induced analgesia, dorsolateral PAG ([1]; rimonabant 2 nmol microinjected): significantly reduced | rimonabant effect on URB597 potentiation of stress analgesia ([1]; rimonabant 1 mg-kg^−1 i.p., 0.2 nmol in the PAG): prevented | rimonabant effect on VDM11 enhancement of stress analgesia ([1]; rimonabant 2 mg-kg^−1 i.p.): blocked | effect on stress-induced analgesia, lateral ventricle ([1]; rimonabant 2-10 nmol): ineffective | basal nociceptive threshold (tail-flick latencies) in absence of stressor [3]: does not alter
